Reference: ChEMBL document CHEMBL1201862, “PubChem BioAssay data set” (2004)
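Following 48 hours of exposure in 96-well plates, responses at five concentrations were used to interpolate endpoints linearly. At the GI50, growth is halved.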 Activity calls are given as the source filed them. No stated cut-off is given here; in the data, active = GI50 up to about 1.1 µM and inactive = higher.

Legend:
Experiment in all cases: NCI anticancer screen, dose series, 48 h
MDA-N = test system: MDA-N
NCI-H460 = test system: NCI-H460
A549 = test system: A549
SR = test system: SR
OVCAR-8 = test system: OVCAR-8
CCRF-CEM = test system: CCRF-CEM
TK-10 = test system: TK-10
UACC-257 = test system: UACC-257
DU-145 = test system: DU-145
UACC-62 = test system: UACC-62
HT-29 = test system: HT-29
OVCAR-4 = test system: OVCAR-4
MCF7 = test system: MCF7
K562 = test system: K562
U-251 = test system: U-251
HCC 2998 = test system: HCC 2998
786-0 = test system: 786-0
SF-295 = test system: SF-295
SNB-19 = test system: SNB-19
CAKI-1 = test system: CAKI-1

Row | Structure (SMILES) | GI50 (MDA-N) | GI50 (NCI-H460) | GI50 (A549) | GI50 (SR) | GI50 (OVCAR-8) | GI50 (CCRF-CEM) | GI50 (TK-10) | GI50 (UACC-257) | GI50 (DU-145) | GI50 (UACC-62) | GI50 (HT-29) | GI50 (OVCAR-4) | GI50 (MCF7) | GI50 (K562) | GI50 (U-251) | GI50 (HCC 2998) | GI50 (786-0) | GI50 (SF-295) | GI50 (SNB-19) | GI50 (CAKI-1)
1 | Oc1cc(-c2cccc(Br)c2)nc2cc3c(cc12)OCO3 | 0.31 µM (active) | 4.01 µM (inactive) | 7.24 µM (inactive) | 1.93 µM (inactive) | 4.57 µM (inactive) | 8.38 µM (inactive) | 12.9 µM (inactive) | 5.24 µM (inactive) | 5.43 µM (inactive) | 1.75 µM (inactive) | 30.9 µM (inactive) | > 30.8 µM (inactive) | 18.7 µM (inactive) | 3.74 µM (inactive) | 3.56 µM (inactive) | 15.1 µM (inactive) | 3.52 µM (inactive) | 1.06 µM (active) | 3.37 µM (inactive) | –
2 | COc1cccc2nc3ccccc3nc12 | > 100 µM (inactive) | 39.8 µM (inactive) | 54.2 µM (inactive) | 44.1 µM (inactive) | 23.8 µM (inactive) | 43.4 µM (inactive) | 66.1 µM (inactive) | 91.2 µM (inactive) | > 100 µM (inactive) | 50.9 µM (inactive) | 46.3 µM (inactive) | – | 54.7 µM (inactive) | 80.2 µM (inactive) | 55.5 µM (inactive) | 79.4 µM (inactive) | 74.1 µM (inactive) | 80 µM (inactive) | 94.6 µM (inactive) | 61 µM (inactive)
3 | O=[N+]([O-])c1cccc(-c2cn3c(n2)Cc2ccccc2C3)c1 | 50.8 µM (inactive) | 85.7 µM (inactive) | 64.1 µM (inactive) | 51.4 µM (inactive) | 99.1 µM (inactive) | 15.9 µM (inactive) | > 100 µM (inactive) | 87.3 µM (inactive) | > 100 µM (inactive) | 53 µM (inactive) | 12.3 µM (inactive) | > 100 µM (inactive) | 3.88 µM (inactive) | > 100 µM (inactive) | 39.7 µM (inactive) | – | > 100 µM (inactive) | 78.5 µM (inactive) | > 100 µM (inactive) | 15.6 µM (inactive)
4 | CCN(CC)CCC(=O)NC1c2ccc(Cl)cc2Oc2c(C)cccc21 (stereo unspecified) | 16.6 µM (inactive) | 16.6 µM (inactive) | 16.5 µM (inactive) | 18.5 µM (inactive) | 16.9 µM (inactive) | 17.2 µM (inactive) | 14.6 µM (inactive) | 17.1 µM (inactive) | 16 µM (inactive) | 16.9 µM (inactive) | 12.9 µM (inactive) | 14.3 µM (inactive) | 15.7 µM (inactive) | 18.5 µM (inactive) | > 10 µM (inactive) | 24.2 µM (inactive) | 12.6 µM (inactive) | 18.6 µM (inactive) | 14 µM (inactive) | –
5 | Cc1cc(C)c(N[S+]([O-])c2cccc(C(F)(F)F)c2)c(C)c1 (stereo unspecified) | > 100 µM (inactive) | > 100 µM (inactive) | > 100 µM (inactive) | > 100 µM (inactive) | > 100 µM (inactive) | > 100 µM (inactive) | > 100 µM (inactive) | > 100 µM (inactive) | > 100 µM (inactive) | – | > 100 µM (inactive) | – | > 100 µM (inactive) | > 100 µM (inactive) | > 100 µM (inactive) | – | > 100 µM (inactive) | > 100 µM (inactive) | > 100 µM (inactive) | –
6 | O=P(O)(O)CN1CCNCCN(CP(=O)(O)O)CCN(CP(=O)(O)O)CCNCC1 | 26400 µM (inactive) | 42400 µM (inactive) | 42600 µM (inactive) | > 100 µM (inactive) | 83400 µM (inactive) | > 100 µM (inactive) | > 100 µM (inactive) | > 100 µM (inactive) | > 100 µM (inactive) | > 100 µM (inactive) | 31.3 µM (inactive) | > 100 µM (inactive) | > 100 µM (inactive) | > 100 µM (inactive) | > 100 µM (inactive) | – | > 100 µM (inactive) | > 100 µM (inactive) | > 100 µM (inactive) | 22500 µM (inactive)
7 | COc1ccc(O)c(/C=N/CCC/N=C/c2cc(OC)ccc2O)c1 | 31.3 µM (inactive) | 41.4 µM (inactive) | 70.8 µM (inactive) | 14 µM (inactive) | 15.7 µM (inactive) | 3.8 µM (inactive) | 34.9 µM (inactive) | 23.7 µM (inactive) | 22 µM (inactive) | 33.1 µM (inactive) | 37.5 µM (inactive) | 21.8 µM (inactive) | 20.9 µM (inactive) | 10.9 µM (inactive) | 16.7 µM (inactive) | – | 33.7 µM (inactive) | 18.1 µM (inactive) | 21.6 µM (inactive) | –
8 | C#CCOCC12C=CC(O1)C1C(=O)N(C)C(=O)C12 (stereo unspecified) | > 100 µM (inactive) | > 100 µM (inactive) | > 100 µM (inactive) | > 100 µM (inactive) | > 100 µM (inactive) | > 100 µM (inactive) | > 100 µM (inactive) | – | > 100 µM (inactive) | > 100 µM (inactive) | > 100 µM (inactive) | > 100 µM (inactive) | > 100 µM (inactive) | – | > 100 µM (inactive) | > 100 µM (inactive) | > 100 µM (inactive) | > 100 µM (inactive) | > 100 µM (inactive) | –
9 | Oc1ccc(SCc2cc(O)ccc2O)cc1 | 14.4 µM (inactive) | 28.9 µM (inactive) | 41.3 µM (inactive) | – | 16.5 µM (inactive) | 1.79 µM (inactive) | 18.4 µM (inactive) | 13.9 µM (inactive) | 24.7 µM (inactive) | 17.1 µM (inactive) | 36 µM (inactive) | 5.5 µM (inactive) | 12.6 µM (inactive) | 3.96 µM (inactive) | 14.5 µM (inactive) | 22.8 µM (inactive) | 12.8 µM (inactive) | 15.6 µM (inactive) | 23.7 µM (inactive) | 6.14 µM (inactive)
10 | CS(=O)(=O)CCC(N)P(=O)(O)O (stereo unspecified) | > 100 µM (inactive) | > 100 µM (inactive) | > 100 µM (inactive) | > 100 µM (inactive) | > 100 µM (inactive) | > 100 µM (inactive) | > 100 µM (inactive) | > 100 µM (inactive) | > 100 µM (inactive) | > 100 µM (inactive) | > 100 µM (inactive) | > 100 µM (inactive) | > 100 µM (inactive) | > 100 µM (inactive) | > 100 µM (inactive) | – | > 100 µM (inactive) | > 100 µM (inactive) | > 100 µM (inactive) | > 100 µM (inactive)
11 | CCOC(=O)/C(=C\c1cn(C(C)=O)c2ccccc12)P(C)(=O)OCC (stereo unspecified) | 24.8 µM (inactive) | – | 37.1 µM (inactive) | > 100 µM (inactive) | 33.4 µM (inactive) | 57.3 µM (inactive) | – | – | 25.9 µM (inactive) | 60 µM (inactive) | 39.9 µM (inactive) | – | 32.8 µM (inactive) | > 100 µM (inactive) | 40.1 µM (inactive) | 27.9 µM (inactive) | 39.5 µM (inactive) | 41.8 µM (inactive) | 49.9 µM (inactive) | 46.2 µM (inactive)
12 | CN1CCN(C(=S)N(C(=O)c2cccs2)c2ccccc2)CC1 | > 100 µM (inactive) | > 100 µM (inactive) | > 100 µM (inactive) | > 100 µM (inactive) | > 100 µM (inactive) | > 100 µM (inactive) | > 100 µM (inactive) | > 100 µM (inactive) | > 100 µM (inactive) | > 100 µM (inactive) | > 100 µM (inactive) | > 100 µM (inactive) | > 100 µM (inactive) | > 100 µM (inactive) | > 100 µM (inactive) | > 100 µM (inactive) | > 100 µM (inactive) | > 10 µM (inactive) | > 100 µM (inactive) | –
13 | O=c1n(CCCN2CCN(c3cccc(Cl)c3)CC2)nc2n1-c1ccc3ccccc3c1SC2 | > 100 µM (inactive) | > 100 µM (inactive) | > 100 µM (inactive) | > 100 µM (inactive) | > 100 µM (inactive) | > 100 µM (inactive) | > 100 µM (inactive) | > 100 µM (inactive) | > 100 µM (inactive) | > 100 µM (inactive) | 9.04 µM (inactive) | > 100 µM (inactive) | > 100 µM (inactive) | > 100 µM (inactive) | > 100 µM (inactive) | – | > 100 µM (inactive) | > 100 µM (inactive) | > 100 µM (inactive) | > 100 µM (inactive)
14 | CCCC(C)c1c(Cl)nc(Cl)nc1Cl (stereo unspecified) | 4.72 µM (inactive) | 11 µM (inactive) | 10.1 µM (inactive) | 4.58 µM (inactive) | 19.1 µM (inactive) | 0.189 µM (active) | 20.9 µM (inactive) | 11 µM (inactive) | 15 µM (inactive) | > 10 µM (inactive) | 11.4 µM (inactive) | 17.1 µM (inactive) | 8.55 µM (inactive) | 3.37 µM (inactive) | 9.38 µM (inactive) | 5.18 µM (inactive) | 4.79 µM (inactive) | 18.5 µM (inactive) | 18.2 µM (inactive) | –
15 | CCC1CC(=O)N(SCC(N)C(=O)O)C1=O (stereo unspecified) | > 100 µM (inactive) | > 100 µM (inactive) | > 100 µM (inactive) | > 100 µM (inactive) | > 100 µM (inactive) | > 100 µM (inactive) | > 100 µM (inactive) | > 100 µM (inactive) | > 100 µM (inactive) | > 100 µM (inactive) | > 100 µM (inactive) | > 100 µM (inactive) | > 100 µM (inactive) | > 100 µM (inactive) | > 100 µM (inactive) | – | > 100 µM (inactive) | > 100 µM (inactive) | > 100 µM (inactive) | > 100 µM (inactive)
